Test results as given in the NIST ThermoML archive (doi:10.1016/j.tca.2012.01.007).
Numbers after ± are expanded uncertainties.

Experiments:
[1] = 101 kPa, Liquid, Vibrating tube method
[2] = wn = mass fraction of the nth substance listed; conditions: 101 kPa, Liquid, Vibrating tube method

OCCNCCO [diethanolamine]
[1]
Conditions	mass density [kg/m3]
278.14 K	1107.05 ± 0.32
283.14 K	1103.88 ± 0.31
293.15 K	1097.51 ± 0.31
303.14 K	1091.06 ± 0.3
313.14 K	1084.49 ± 0.3
323.14 K	1077.78 ± 0.29
333.14 K	1071 ± 0.29
343.14 K	1064.14 ± 0.28
348.14 K	1060.68 ± 0.28
353.15 K	1056.83 ± 0.28

OCCNCCO [diethanolamine] + CO
[2]
Conditions	mass density [kg/m3]
283.14 K, w1 = 0.5999	976.523 ± 0.2
283.15 K, w1 = 0.1	827.828 ± 0.15
283.15 K, w1 = 0.2	855.383 ± 0.15
283.15 K, w1 = 0.3	883.986 ± 0.17
283.15 K, w1 = 0.3999	913.669 ± 0.19
283.15 K, w1 = 0.5002	945.053 ± 0.22
283.15 K, w1 = 0.8001	1038.06 ± 0.23
283.15 K, w1 = 0.831	1047.98 ± 0.24
283.15 K, w1 = 0.9004	1070.41 ± 0.27
283.15 K, w1 = 0.9209	1077.24 ± 0.28
283.16 K, w1 = 0.6997	1006.57 ± 0.2
293.14 K, w1 = 0.1	818.746 ± 0.15
293.14 K, w1 = 0.9209	1070.68 ± 0.27
293.15 K, w1 = 0.2	846.577 ± 0.16
293.15 K, w1 = 0.3	875.502 ± 0.17
293.15 K, w1 = 0.3999	905.478 ± 0.2
293.15 K, w1 = 0.5002	937.232 ± 0.22
293.15 K, w1 = 0.5999	969.048 ± 0.21
293.15 K, w1 = 0.6997	999.095 ± 0.2
293.15 K, w1 = 0.8001	1030.93 ± 0.22
293.15 K, w1 = 0.9004	1063.79 ± 0.26
293.16 K, w1 = 0.831	1040.93 ± 0.23
303.14 K, w1 = 0.1	809.6 ± 0.15
303.14 K, w1 = 0.5999	961.458 ± 0.21
303.15 K, w1 = 0.2	837.727 ± 0.16
303.15 K, w1 = 0.3	866.962 ± 0.17
303.15 K, w1 = 0.3999	897.232 ± 0.2
303.15 K, w1 = 0.5002	929.334 ± 0.23
303.15 K, w1 = 0.6997	991.41 ± 0.2
303.15 K, w1 = 0.8001	1023.79 ± 0.22
303.15 K, w1 = 0.831	1033.88 ± 0.23
303.15 K, w1 = 0.9004	1057.05 ± 0.26
303.15 K, w1 = 0.9209	1064.03 ± 0.27
313.14 K, w1 = 0.1	800.368 ± 0.16
313.15 K, w1 = 0.2	828.795 ± 0.16
313.15 K, w1 = 0.3	858.34 ± 0.18
313.15 K, w1 = 0.3999	888.909 ± 0.2
313.15 K, w1 = 0.5002	921.353 ± 0.23
313.15 K, w1 = 0.5999	953.776 ± 0.21
313.15 K, w1 = 0.6997	983.97 ± 0.2
313.15 K, w1 = 0.8001	1016.6 ± 0.21
313.15 K, w1 = 0.831	1026.78 ± 0.23
313.15 K, w1 = 0.9004	1050.22 ± 0.25
313.15 K, w1 = 0.9209	1057.29 ± 0.26
323.14 K, w1 = 0.1	791.018 ± 0.16
323.15 K, w1 = 0.2	819.75 ± 0.17
323.15 K, w1 = 0.3	849.609 ± 0.18
323.15 K, w1 = 0.3999	880.486 ± 0.2
323.15 K, w1 = 0.5002	913.261 ± 0.23
323.15 K, w1 = 0.5999	945.981 ± 0.21
323.15 K, w1 = 0.6997	976.456 ± 0.2
323.15 K, w1 = 0.8001	1009.28 ± 0.21
323.15 K, w1 = 0.831	1019.63 ± 0.22
323.15 K, w1 = 0.9004	1043.29 ± 0.25
323.15 K, w1 = 0.9209	1050.47 ± 0.26
333.14 K, w1 = 0.1	781.504 ± 0.16
333.14 K, w1 = 0.5999	938.046 ± 0.21
333.14 K, w1 = 0.9209	1043.49 ± 0.25
333.15 K, w1 = 0.2	810.556 ± 0.17
333.15 K, w1 = 0.3	840.739 ± 0.18
333.15 K, w1 = 0.3999	871.934 ± 0.2
333.15 K, w1 = 0.5002	905.025 ± 0.23
333.15 K, w1 = 0.6997	968.833 ± 0.2
333.15 K, w1 = 0.8001	1002.21 ± 0.21
333.15 K, w1 = 0.831	1012.39 ± 0.22
333.15 K, w1 = 0.9004	1036.23 ± 0.24

CCO [ethanol]
[1]
Conditions	mass density [kg/m3]
278.15 K	802.686 ± 0.12
283.15 K	798.458 ± 0.13
293.14 K	789.938 ± 0.13
303.14 K	781.332 ± 0.13
313.16 K	772.577 ± 0.14
323.14 K	763.677 ± 0.14
333.14 K	754.521 ± 0.14
343.15 K	745.054 ± 0.15
348.14 K	740.206 ± 0.15

CCO [ethanol] + OCCNCCO
[2], w2 = 0
Conditions	mass density [kg/m3]
278.15 K	802.686 ± 0.12
283.15 K	798.458 ± 0.13
293.14 K	789.938 ± 0.13
303.14 K	781.332 ± 0.13
313.16 K	772.577 ± 0.14
323.14 K	763.677 ± 0.14
333.14 K	754.521 ± 0.14
343.15 K	745.054 ± 0.15
348.14 K	740.206 ± 0.15

CO [methanol]
[1]
Conditions	mass density [kg/m3]
283.15 K	801.436 ± 0.15
293.15 K	792.069 ± 0.15
303.15 K	782.606 ± 0.15
313.15 K	773.049 ± 0.15
323.15 K	763.363 ± 0.16
333.15 K	753.506 ± 0.16

CO [methanol] + OCCNCCO
[2], w2 = 0
Conditions	mass density [kg/m3]
283.15 K	801.436 ± 0.15
293.15 K	792.069 ± 0.15
303.15 K	782.606 ± 0.15
313.15 K	773.049 ± 0.15
323.15 K	763.363 ± 0.16
333.15 K	753.506 ± 0.16

O [water]
[1]
Conditions	mass density [kg/m3]
283.15 K	999.964 ± 0.48
293.15 K	998.557 ± 0.48
303.15 K	995.999 ± 0.48
313.15 K	992.57 ± 0.48
323.15 K	988.391 ± 0.47
333.15 K	983.453 ± 0.47
343.14 K	977.483 ± 0.47
353.14 K	972.2 ± 0.47

O [water] + OCCNCCO
[2], w2 = 0
Conditions	mass density [kg/m3]
283.15 K	999.964 ± 0.48
293.15 K	998.557 ± 0.48
303.15 K	995.999 ± 0.48
313.15 K	992.57 ± 0.48
323.15 K	988.391 ± 0.47
333.15 K	983.453 ± 0.47
343.14 K	977.483 ± 0.47
353.14 K	972.2 ± 0.47
